{"source": "ChEMBL document CHEMBL1201862", "about": "“PubChem BioAssay data set” (2004)", "experiment_in_all_cases": "inhibition of tumour cell growth, NCI panel, 48 h", "key": {"[1]": {"tested_on": "SW-620"}, "[2]": {"tested_on": "SR"}, "[3]": {"tested_on": "OVCAR-8"}, "[4]": {"tested_on": "U-251"}, "[5]": {"tested_on": "Hs-578T"}, "[6]": {"tested_on": "A549"}, "[7]": {"tested_on": "SK-MEL-5"}, "[8]": {"tested_on": "MDA-MB-231"}, "[9]": {"tested_on": "KM12"}, "[10]": {"tested_on": "HCT-116"}, "[11]": {"tested_on": "RXF 393"}, "[12]": {"tested_on": "K562"}, "[13]": {"tested_on": "HOP-92"}, "[14]": {"tested_on": "COLO 205"}, "[15]": {"tested_on": "HL-60"}, "[16]": {"tested_on": "SNB-19"}, "[17]": {"tested_on": "MDA-N"}, "[18]": {"tested_on": "HT-29"}, "[19]": {"tested_on": "MDA-MB-435"}, "[20]": {"tested_on": "OVCAR-3"}, "[21]": {"tested_on": "NCI-H23"}, "[22]": {"tested_on": "MOLT-4"}, "[23]": {"tested_on": "CCRF-CEM"}, "[24]": {"tested_on": "SK-OV-3"}, "[25]": {"tested_on": "SK-MEL-28"}, "[26]": {"tested_on": "OVCAR-4"}, "[27]": {"tested_on": "NCI-H522"}, "[28]": {"tested_on": "NCI/ADR-RES"}, "[29]": {"tested_on": "SF-268"}, "[30]": {"tested_on": "DU-145"}, "[31]": {"tested_on": "NCI-H460"}, "[32]": {"tested_on": "SNB-75"}, "[33]": {"tested_on": "ACHN"}, "[34]": {"tested_on": "PC-3"}, "[35]": {"tested_on": "MCF7"}, "[36]": {"tested_on": "T47D"}, "[37]": {"tested_on": "UO-31"}, "[38]": {"tested_on": "SF-295"}, "[39]": {"tested_on": "M14"}, "[40]": {"tested_on": "HCC 2998"}, "[41]": {"tested_on": "HCT-15"}, "[42]": {"tested_on": "UACC-257"}, "[43]": {"tested_on": "SN12C"}, "[44]": {"tested_on": "TK-10"}, "[45]": {"tested_on": "A498"}, "[46]": {"tested_on": "NCI-H226"}, "[47]": {"tested_on": "LOX IMVI"}, "[48]": {"tested_on": "786-0"}, "[49]": {"tested_on": "IGROV-1"}, "[50]": {"tested_on": "Malme-3M"}, "[51]": {"tested_on": "HOP-62"}, "[52]": {"tested_on": "CAKI-1"}, "[53]": {"tested_on": "EKVX"}, "[54]": {"tested_on": "UACC-62"}, "[55]": {"tested_on": "RPMI-8226"}}, "note": "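Following 48 hours of exposure in 96-well plates, responses at five concentrations were used to interpolate endpoints linearly. GI50 marks 50% less growth.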 Activity calls are given as the source filed them. Rule as the data show it: active = GI50 up to about 1.1 µM and inactive = higher."}
{"smiles": "Cc1ccc(S(=O)(=O)NCCCSCCSCCCN)cc1", "values": [{"measurement": "GI50", "setting": "[1]", "value": "> 100 µM (inactive)"}, {"measurement": "GI50", "setting": "[2]", "value": "> 100 µM (inactive)"}, {"measurement": "GI50", "setting": "[3]", "value": "> 100 µM (inactive)"}, {"measurement": "GI50", "setting": "[4]", "value": "> 100 µM (inactive)"}, {"measurement": "GI50", "setting": "[5]", "value": "> 100 µM (inactive)"}, {"measurement": "GI50", "setting": "[6]", "value": "> 100 µM (inactive)"}, {"measurement": "GI50", "setting": "[7]", "value": "> 100 µM (inactive)"}, {"measurement": "GI50", "setting": "[8]", "value": "> 100 µM (inactive)"}, {"measurement": "GI50", "setting": "[9]", "value": "> 100 µM (inactive)"}, {"measurement": "GI50", "setting": "[10]", "value": "> 100 µM (inactive)"}, {"measurement": "GI50", "setting": "[11]", "value": "> 100 µM (inactive)"}, {"measurement": "GI50", "setting": "[12]", "value": "> 100 µM (inactive)"}, {"measurement": "GI50", "setting": "[13]", "value": "> 100 µM (inactive)"}, {"measurement": "GI50", "setting": "[14]", "value": "> 100 µM (inactive)"}, {"measurement": "GI50", "setting": "[15]", "value": "> 100 µM (inactive)"}, {"measurement": "GI50", "setting": "[16]", "value": "> 100 µM (inactive)"}, {"measurement": "GI50", "setting": "[17]", "value": "> 100 µM (inactive)"}, {"measurement": "GI50", "setting": "[18]", "value": "> 100 µM (inactive)"}, {"measurement": "GI50", "setting": "[19]", "value": "> 100 µM (inactive)"}, {"measurement": "GI50", "setting": "[20]", "value": "> 100 µM (inactive)"}, {"measurement": "GI50", "setting": "[21]", "value": "> 100 µM (inactive)"}, {"measurement": "GI50", "setting": "[22]", "value": "> 100 µM (inactive)"}, {"measurement": "GI50", "setting": "[23]", "value": "> 100 µM (inactive)"}, {"measurement": "GI50", "setting": "[24]", "value": "> 100 µM (inactive)"}, {"measurement": "GI50", "setting": "[25]", "value": "> 100 µM (inactive)"}, {"measurement": "GI50", "setting": "[26]", "value": "> 100 µM (inactive)"}, {"measurement": "GI50", "setting": "[27]", "value": "> 100 µM (inactive)"}, {"measurement": "GI50", "setting": "[28]", "value": "> 100 µM (inactive)"}, {"measurement": "GI50", "setting": "[29]", "value": "> 100 µM (inactive)"}, {"measurement": "GI50", "setting": "[30]", "value": "> 100 µM (inactive)"}, {"measurement": "GI50", "setting": "[31]", "value": "> 100 µM (inactive)"}, {"measurement": "GI50", "setting": "[32]", "value": "> 100 µM (inactive)"}, {"measurement": "GI50", "setting": "[33]", "value": "> 100 µM (inactive)"}, {"measurement": "GI50", "setting": "[34]", "value": "> 100 µM (inactive)"}, {"measurement": "GI50", "setting": "[35]", "value": "> 100 µM (inactive)"}, {"measurement": "GI50", "setting": "[36]", "value": "> 100 µM (inactive)"}, {"measurement": "GI50", "setting": "[37]", "value": "> 100 µM (inactive)"}, {"measurement": "GI50", "setting": "[38]", "value": "> 100 µM (inactive)"}, {"measurement": "GI50", "setting": "[39]", "value": "> 100 µM (inactive)"}, {"measurement": "GI50", "setting": "[40]", "value": "> 100 µM (inactive)"}, {"measurement": "GI50", "setting": "[41]", "value": "> 100", "unit": "µM"}, {"measurement": "GI50", "setting": "[42]", "value": "> 100 µM (inactive)"}, {"measurement": "GI50", "setting": "[43]", "value": "> 100 µM (inactive)"}, {"measurement": "GI50", "setting": "[44]", "value": "> 100 µM (inactive)"}, {"measurement": "GI50", "setting": "[45]", "value": "> 100 µM (inactive)"}, {"measurement": "GI50", "setting": "[46]", "value": "> 100 µM (inactive)"}, {"measurement": "GI50", "setting": "[47]", "value": "> 100 µM (inactive)"}]}
{"smiles": "CC(=O)N1C(NN(C)C)CCN1c1ccccc1", "note": "(stereo not drawn)", "values": [{"measurement": "GI50", "setting": "[1]", "value": "> 10 µM (inactive)"}, {"measurement": "GI50", "setting": "[2]", "value": "> 10 µM (inactive)"}, {"measurement": "GI50", "setting": "[3]", "value": "> 10 µM (inactive)"}, {"measurement": "GI50", "setting": "[6]", "value": "> 10 µM (inactive)"}, {"measurement": "GI50", "setting": "[7]", "value": "> 10 µM (inactive)"}, {"measurement": "GI50", "setting": "[8]", "value": "> 10 µM (inactive)"}, {"measurement": "GI50", "setting": "[9]", "value": "> 10 µM (inactive)"}, {"measurement": "GI50", "setting": "[48]", "value": "> 10 µM (inactive)"}, {"measurement": "GI50", "setting": "[11]", "value": "> 10 µM (inactive)"}, {"measurement": "GI50", "setting": "[12]", "value": "> 10 µM (inactive)"}, {"measurement": "GI50", "setting": "[13]", "value": "> 10 µM (inactive)"}, {"measurement": "GI50", "setting": "[49]", "value": "> 10 µM (inactive)"}, {"measurement": "GI50", "setting": "[14]", "value": "> 10 µM (inactive)"}, {"measurement": "GI50", "setting": "[15]", "value": "> 10 µM (inactive)"}, {"measurement": "GI50", "setting": "[50]", "value": "> 10 µM (inactive)"}, {"measurement": "GI50", "setting": "[18]", "value": "> 10 µM (inactive)"}, {"measurement": "GI50", "setting": "[19]", "value": "> 10 µM (inactive)"}, {"measurement": "GI50", "setting": "[21]", "value": "> 10 µM (inactive)"}, {"measurement": "GI50", "setting": "[22]", "value": "> 10 µM (inactive)"}, {"measurement": "GI50", "setting": "[23]", "value": "> 10 µM (inactive)"}, {"measurement": "GI50", "setting": "[24]", "value": "> 10 µM (inactive)"}, {"measurement": "GI50", "setting": "[25]", "value": "> 10 µM (inactive)"}, {"measurement": "GI50", "setting": "[26]", "value": "> 10 µM (inactive)"}, {"measurement": "GI50", "setting": "[29]", "value": "> 10 µM (inactive)"}, {"measurement": "GI50", "setting": "[30]", "value": "> 10 µM (inactive)"}, {"measurement": "GI50", "setting": "[32]", "value": "> 10 µM (inactive)"}, {"measurement": "GI50", "setting": "[51]", "value": "> 10 µM (inactive)"}, {"measurement": "GI50", "setting": "[34]", "value": "> 10 µM (inactive)"}, {"measurement": "GI50", "setting": "[35]", "value": "> 10 µM (inactive)"}, {"measurement": "GI50", "setting": "[36]", "value": "> 10 µM (inactive)"}, {"measurement": "GI50", "setting": "[52]", "value": "> 10 µM (inactive)"}, {"measurement": "GI50", "setting": "[38]", "value": "> 10 µM (inactive)"}, {"measurement": "GI50", "setting": "[39]", "value": "> 10 µM (inactive)"}, {"measurement": "GI50", "setting": "[40]", "value": "> 10 µM (inactive)"}, {"measurement": "GI50", "setting": "[41]", "value": "> 10", "unit": "µM"}, {"measurement": "GI50", "setting": "[53]", "value": "> 10 µM (inactive)"}, {"measurement": "GI50", "setting": "[42]", "value": "> 10 µM (inactive)"}, {"measurement": "GI50", "setting": "[43]", "value": "> 10 µM (inactive)"}, {"measurement": "GI50", "setting": "[44]", "value": "> 10 µM (inactive)"}, {"measurement": "GI50", "setting": "[54]", "value": "> 10 µM (inactive)"}, {"measurement": "GI50", "setting": "[55]", "value": "> 10 µM (inactive)"}]}
